The values that follow come from US20050272636A1, “Treatment and diagnosis of a reproductive disorder by measuring or inhibiting interferon-gamma” (Adelaide Research & Innovation Pty Ltd., priority 2002, published 2005).

The subject of the assay is IFNγ. As to the kind of experiment: Inhibitors and antagonists counteracting the GM-CSF-inhibiting actions of IFNγ in uterine epithelial cells (Example 3). The class given is cell-based, mouse. The settings on record: added in combination with IFNγ; dose-responsive, 5 ng/ml greater effect than 0.5 ng/ml. The protocol:
Several inhibitors and antagonists of IFNγ were tested for their ability to counteract the GM-CSF-inhibiting actions of IFNγ in epithelial cells.
Uterine Epithelial Cell Cultures. Uterine epithelial cells prepared by pancreatin-trypsin digest as previously described (Robertson et al., (1992) Biol. Reprod. 46:1069-1079) were pooled from 4-6 estrous adult C57B1/6×CBA F1 female mice and plated in 1 ml culture wells (Nunc, Roskilde, Germany) at 1-2×10^5 cells per ml in 500 μl of RPMI containing 10% FCS and streptomycin (RPMI-FCS). Penicillin was omitted from culture media except where specified. After 4 h incubation at 37° C. in 5% CO2 to allow cell adherence, a further 500 μl of cytokines or antibodies in RPMI-FCS, or RPMI-FCS alone, were added. Cytokine treatments included recombinant mouse interferon-γ (rmIFNγ; R&D Systems), recombinant human transforming growth factor β1 (rhTGFβ1, R&D Systems), rhTGFβ2 (R&D Systems), rhTGFβ3 (OSI Pharmaceuticals). Antibody treatments included goat anti-mouse IFNγ receptor 1 (αIFNγR; R&D Systems AF1026) and hamster anti-mouse IFNγ (αIFNγ; R&D Systems MAB4851). Culture supernatants were collected and replaced with fresh complete RPMI-FCS alone at 16 hours, then collected again 24 hours later, at which time adherent cells were quantified as previously described (Robertson et al., (1992) Biol. Reprod. 46:1069-1079). The GM-CSF content of 24 h supernatants was determined by GM-CSF bioassay or immunoassay. All treatments were performed in duplicate or triplicate.
GM-CSF bioassay and immunoassay: Bioactive GM-CSF was assayed using the GM-CSF dependant cell line FD 5/12, essentially as previously described (Robertson et al., (1992) Biol. Reprod. 46:1069-1079). Cell proliferation was determined by the addition of 1 μCi of [^3H]-thymidine per well for the last 6 h of the assay. The minimal detectable amount of GM-CSF was […] The identity of the bioactivity in uterine epithelial cell cultures was confirmed using a goat polyclonal antibody to murine GM-CSF kindly provided by J. Schreurs (DNAX, Palo Alto, Calif.) as previously described (Robertson et al., (1992) Biol. Reprod. 46:1069-1079). GM-CSF immunoactivity was in some experiments measured by commercial mouse GM-CSF specific ELISA (R & D Systems) according to the manufacturer's instructions.

For the substance “rhTGFβ1: recombinant human transforming growth factor β1 (R&D Systems)”, the “effect of TGFβ isoform on the inhibitory effect of IFNγ on GM-CSF synthesis” value is “counteracted the inhibitory effect”.
